In patent US12391660B2, “Heteroaromatic acetamide derivative, and preparation and use thereof” (Hangzhou Westan Pharmaceutical Technology Co., Ltd, priority 2019, dated 2025):

Target: human TRPA1 (Homo sapiens (Human), UniProt O75762)
Test: FLIPR assay of inhibitory activity on human TRPA1 (calcium ion flux fluorescence)
Format: cell-based
Conditions: HEK293 cells stably expressing human TRPA1
Procedure: 1. FLIPR Assay of Inhibitory Activity on Human TRPA1
A calcium ion flux fluorescence method (FLIPR assay) was adopted to measure the inhibitory activity of compounds on human TRPA1 channel. The literature reports of Lee and Chen et al. may be referred to for the method [Lee et al. Br J Pharmacol 2008, 153 (8): 1739-1749] [Chen et al. Pain 2011, 152(5):1165-72].
A HEK293 recombinant cell strain stably expressing human TRPA1 (Creative Biogene, NY) was cultured in DMEM (Thermo Fisher Scientific, Shanghai) medium (containing 10% calf serum, 5 μg/ml Blasticidin and 400 ug/ml G418). The incubator was under a condition of 37° C. and air humidity with 5% CO2.
TRPA1 cells were seeded in a 96-well analysis plate at a density of 75,000 cells per well (100 ul/well), and cultured overnight in an incubator at 37° C. and 5% CO2. On the second day, incubation was continued overnight under the same condition to induce the expression of TRPA1 after the culture medium in each well was poured out and a fresh supplement with the same culture medium containing 0.1 μg/ml Tetracycline was added. The further next day, the culture medium was pour out, a DMEM culture solution (also containing 2.5 mM Probenicid) containing 5 μM Fluo-4 AM (Molecular Probes) was added to each well, and incubation was conducted at 37° C. for 1 hour.
The compound was dissolved in 100% DMSO to prepare a 30 mM stock solution which was stored at −20° C. On the day of use, the compound stock solution was thawed at room temperature. Each compound was subjected to 1:5 serial dilution using DMSO medium at a starting concentration of 30 μM with 9 concentration points on a 96-well plate. Each compound was diluted in duplicate for testing. Ruthenium Red was used as the positive control compound and the same dilution was carried out at a starting concentration of 3 μM.
The cell analysis plate was placed in an FLIPR instrument […], and the compound in the compound plate was added to the corresponding hole on the cell analysis plate (First addition) via an automatic program, and the calcium ion fluorescence signal was recorded to determine whether the compound had agonistic activity. After 10 minutes, CaCl2 (Second addition) was added a final concentration of 3 mM to each well to stimulate intracellular calcium flux signals. Ca^++-dependent fluorescence signal was monitored continuously at 538 nm wavelength to analyze the inhibitory activity of the compounds.
The data was collected and analyzed using a FLIPR program. The fluorescence peak value was used to evaluate the inhibitory (or agonistic) activity of the compounds at each concentration. EXCEL and PRISM programs were used to calculate the IC50 value of the compounds.

Chain of human TRPA1 (O75762 whole entry): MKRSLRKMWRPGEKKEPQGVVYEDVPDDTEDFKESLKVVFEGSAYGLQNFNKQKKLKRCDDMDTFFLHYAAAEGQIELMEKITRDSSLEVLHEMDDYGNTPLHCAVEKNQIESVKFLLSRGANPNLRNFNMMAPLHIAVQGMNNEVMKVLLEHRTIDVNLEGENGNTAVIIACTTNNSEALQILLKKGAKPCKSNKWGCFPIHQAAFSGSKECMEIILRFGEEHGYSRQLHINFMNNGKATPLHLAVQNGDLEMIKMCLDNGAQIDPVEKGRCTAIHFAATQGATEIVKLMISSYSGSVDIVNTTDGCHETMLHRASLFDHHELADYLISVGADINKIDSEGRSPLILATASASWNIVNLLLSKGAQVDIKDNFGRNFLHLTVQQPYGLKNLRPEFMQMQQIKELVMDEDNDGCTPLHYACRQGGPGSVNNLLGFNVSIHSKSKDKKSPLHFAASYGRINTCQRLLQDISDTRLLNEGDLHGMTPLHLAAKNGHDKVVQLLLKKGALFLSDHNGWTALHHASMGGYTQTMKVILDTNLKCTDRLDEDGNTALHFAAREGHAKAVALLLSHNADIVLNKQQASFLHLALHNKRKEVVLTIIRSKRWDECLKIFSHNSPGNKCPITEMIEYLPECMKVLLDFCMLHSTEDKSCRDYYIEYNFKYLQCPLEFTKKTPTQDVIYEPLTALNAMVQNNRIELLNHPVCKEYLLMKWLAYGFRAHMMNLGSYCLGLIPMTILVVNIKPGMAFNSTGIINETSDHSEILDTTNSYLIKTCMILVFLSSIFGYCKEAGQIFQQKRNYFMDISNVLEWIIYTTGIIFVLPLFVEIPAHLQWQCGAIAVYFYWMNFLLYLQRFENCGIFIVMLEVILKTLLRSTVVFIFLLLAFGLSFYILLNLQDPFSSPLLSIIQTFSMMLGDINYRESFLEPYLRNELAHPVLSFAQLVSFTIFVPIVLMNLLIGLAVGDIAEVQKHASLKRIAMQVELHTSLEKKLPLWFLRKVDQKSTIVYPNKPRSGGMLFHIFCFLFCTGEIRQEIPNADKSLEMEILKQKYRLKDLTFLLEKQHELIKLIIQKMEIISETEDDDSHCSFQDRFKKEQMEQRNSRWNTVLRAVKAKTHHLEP

Cn1cc(NC2(C(=O)N3CCC(C(C)(C)C)CC3)CCCC2)nc1C#N [Compound 42, 4-((1-(4-(tert-butyl)piperidine-1-carbonyl)cyclopentyl)amino) -1-methyl-1H-imidazole-2-carbonitrile]
IC50: 4650 nM

CC(C)(C)C1CCN(C(=O)C(Nc2ccc(C#N)cc2)C(C)(C)C)CC1 (stereo not shown) [Compound 43, 4-((1-(4-(tert-butyl)piperidine-1-carbonyl)tert-butyl)amino) benzonitrile]
IC50: 91 nM

CC(C)(C)C1CCN(C(=O)C2(Nc3ccc(C(F)(F)F)cc3)CCCC2)CC1 [Compound 45]
IC50: 72 nM

CC(C)(C)C1CCN(C(=O)C2(Nc3ccc(Cl)cc3)CCCC2)CC1 [Compound 46, 4-((1-(4-(tert-butyl)piperidine-1-carbonyl)cyclopentyl)amino) chlorobenzene]
IC50: 108 nM

N#Cc1ccc(OC2(C(=O)N3CCN(c4cccc(C(F)(F)F)n4)CC3)CCCC2)cc1 [Compound 47, 4-((1-(4-(6-(trifluoromethyl)pyridin-2-yl)piperazine-1-carbonyl)cyclopentyl)oxy)benzonitrile]
IC50: 38 nM

Cc1cccc(N2CCN(C(=O)C3(Oc4ccc(C#N)cc4)CCCC3)CC2)c1 [Compound 48, 4-((1-(4-(m-methylphenyl)piperazine-1-carbonyl)cyclopentyl)oxy)benzonitrile]
IC50: 65 nM

N#Cc1ccc(OC2(C(=O)N3CCN(c4ccc(C(F)(F)F)cc4)CC3)CCCC2)cc1 [Compound 49]
IC50: 325 nM

CC(C)(C)C(Oc1ccc(C#N)cc1)C(=O)N1CCN(c2cccc(C(F)(F)F)n2)CC1 (stereo not shown) [Compound 51]
IC50: 182 nM

N#Cc1ccc(OC2(C(=O)N3CCN(c4ccc(C(F)(F)F)nn4)CC3)CCCC2)cc1 [Compound 52, 4-((1-(4-(6-(trifluoromethyl)pyridazin-3-yl)piperazine-1-carbonyl)cyclopentyl)oxy)ben zonitrile]
IC50: 465 nM

O=C(N1CCN(c2ccc(C(F)(F)F)nn2)CC1)C1(Oc2ccc([N+](=O)[O-])cc2)CCCC1 [Compound 53, 4-((1-(4-(6-(trifluoromethyl)pyridazin-3-yl)piperazine-1-carbonyl)cyclopentyl)oxy)nitro benzene]
IC50: 862 nM

N#Cc1ccc(OC2(C(=O)N3CC4CCC3CN4c3cccc(C(F)(F)F)n3)CCCC2)cc1 (stereo not shown) [Compound 55, 4-((1-(5-(6-(trifluoromethyl)pyridin-2-yl)-2,5-diazabicyclo [2.2.2]octane-2-carbonyl)cyclopentyl)oxy)benzonitrile]
IC50: 91 nM

CC(C)(C)C1CCN(C(=O)C2(Oc3ccc(C#N)cc3)CCCC2)CC1 [Compound 56, 4-((1-(4-(tert-butyl)piperidine-1-carbonyl)cyclopentyl)oxy) benzonitrile]
IC50: 76 nM

CC(C)(C)N1CCN(C(=O)C2(Oc3ccc(C#N)cc3)CCCC2)CC1 [Compound 57, 4-((1-(4-(tert-butyl)piperazine-1-carbonyl)cyclopentyl)oxy) benzonitrile]
IC50: 51 nM

N#Cc1ccc(OC2(C(=O)N3CCN(c4cccc(C(F)(F)F)n4)CC3)CCC2)cc1 [Compound 58, 4-((1-(4-(6-(trifluoromethyl)pyridin-2-yl)piperazine-1-carbonyl)cyclobutyl)oxy)benzo nitrile]
IC50: 620 nM

N#Cc1ccc(OC2(C(=O)N3CCN(c4ccc(C(F)(F)F)nn4)CC3)CCCC2)cc1Cl [Compound 60, 2-chloro-4-((1-(4-(6-(trifluoromethyl)pyridazin-3-yl)piperazine-1-carbonyl)cyclopentyl)oxy)benzonitrile]
IC50: 847 nM

N#Cc1ccc(OC(C(=O)N2CCN(c3ccc(C(F)(F)F)nn3)CC2)c2ccccc2)cc1 (stereo not shown) [Compound 63]
IC50: 560 nM

CC(C)(C)N1CCN(C(=O)C2(Oc3ccc(C(F)(F)F)cc3)CCCC2)CC1 [Compound 64, 4-((1-(4-(tert-butyl)piperazine-1-carbonyl)cyclopentyl)oxy) trifluoromethylbenzene]
IC50: 552 nM

Cn1cc(C#N)cc1OC1(C(=O)N2CCC(C(C)(C)C)CC2)CCCC1 [Compound 65, 5-((1-(4-(tert-butyl)piperidine-1-carbonyl)cyclopentyl)oxy)-1-methyl-1H-pyrrole-3-car bonitrile]
IC50: 1080 nM

CC(C)(C)N1CCN(C(=O)C2(Sc3ccc(C#N)cc3)CCCC2)CC1 [Compound 66, 4-((1-(4-(tert-butyl)piperazine-1-carbonyl)cyclopentyl)sul-fanyl)benzonitrile]
IC50: 105 nM

Cn1ccc2cc(SC3(C(=O)N4CCC(C(C)(C)C)CC4)CCCC3)ccc21 [Compound 67, 5-((1-(4-(tert-butyl)piperidine-1-carbonyl)cyclopentyl)sulfanyl)-1-methyl-1H-indole]
IC50: 3780 nM

N#Cc1ccc2c(c1)CC(C(=O)N1CCN(c3cccc(C(F)(F)F)n3)CC1)N2 (stereo not shown) [Compound 68, 2-(4-(6-(trifluoromethyl)pyridin-2-yl)piperazine-1-carbonyl)-5-cyanoindoline]
IC50: 112 nM

N#Cc1ccc2c(c1)CC(C(=O)N1CCN(c3nccc(C(F)(F)F)n3)CC1)N2 (stereo not shown) [Compound 69, 2-(4-(4-(trifluoromethyl)pyrimidin-2-yl)piperazine-1-carbonyl)-5-cyanoindoline]
IC50: 386 nM

N#Cc1ccc2c(c1)CC(C(=O)N1CCN(c3cccc(C(F)(F)F)c3)CC1)N2 (stereo not shown) [Compound 70, 2-(4-(3-(trifluoromethyl)phenyl)piperazine-1-carbonyl)-5-cyanoindoline]
IC50: 92 nM

N#Cc1ccc2[nH]c(C(=O)N3CCN(c4cccc(C(F)(F)F)n4)CC3)cc2c1 [Compound 71, 2-(4-(6-(trifluoromethyl)pyridin-2-yl)piperazine-1-carbonyl)-1H-5-cyanoindole]
IC50: 866 nM

N#Cc1ccc2[nH]c(C(=O)N3CCN(c4ccc(C(F)(F)F)cn4)CC3)cc2c1 [Compound 72, 2-(4-(5-(trifluoromethyl)pyridin-2-yl)piperazine-1-carbonyl)-1H-5-cyanoindole]
IC50: 971 nM

N#Cc1ccc2c(c1)CC(C(=O)N1CCN(c3cccc(C(F)(F)F)n3)CC1)O2 (stereo not shown) [Compound 73, 2-(4-(6-(trifluoromethyl)pyridin-2-yl)piperazine-1-carbonyl)-2,3-2H-5-cyanobenzofuran]
IC50: 261 nM

O=C(C1Cc2cc(Cl)ccc2O1)N1CCN(c2cccc(C(F)(F)F)n2)CC1 (stereo not shown) [Compound 74, 2-(4-(6-(trifluoromethyl)pyridin-2-yl)piperazine-1-carbonyl)-2,3-2H-5-chlorobenzofuran]
IC50: 116 nM

Cc1cccc(N2CCN(C(=O)C3Cc4cc(C#N)ccc4O3)CC2)n1 (stereo not shown) [Compound 75]
IC50: 285 nM

CC(C)(C)N1CCN(C(=O)C2Cc3cc(C#N)ccc3N2)CC1 (stereo not shown) [Compound 77, 2-(4-(tert-butyl)piperazine-1-carbonyl)-5-cyanoindoline]
IC50: 91 nM

CC(C)(C)C1CCN(C(=O)C2Cc3cc(C#N)ccc3O2)CC1 (stereo not shown) [Compound 79, 2-(4-(tert-butyl)piperidine-1-carbonyl)-2,3-2H-5-cyanoben-zofuran]
IC50: 82 nM

CC(C)(C)N1CCN(C(=O)C2Cc3cc(C#N)ccc3O2)CC1 (stereo not shown) [Compound 80, 2-(4-(tert-butyl)piperazine-1-carbonyl)-2,3-2H-5-cyano-benzofuran]
IC50: 68 nM
